The values that follow come from US20040152708A1, “Trans-9,10-dehydroepothilone C and D, analogs thereof and methods of making the same” (priority 2002, published 2004).

In general, half-life refers to the time in which the quantity being followed falls by half. High values mean slow decline, low ones rapid decline. What is called solubility is the concentration that dissolves in the medium under given conditions. Lower therefore signals a poorly soluble substance.

In brackets after ≈: the same amount, converted by molar mass. Bounds are passed on as bounds.

One data set concerns the target T1, CYP2C19 (Homo sapiens, UniProt P33261).
T1 construct: purchased BD GenTest, Woburn, Mass
The data set is described as follows: Cytochrome P450 inhibition, CYP2C19. The class given is in vitro ADME. To be noted: human.

For data set [1], the system named is multi-drug resistant breast carcinoma cell line NCI/ADR. The experiment in a line: SRB cytotoxicity assay, NCI/ADR. The class given is cell-based, human. To be noted: Homo sapiens, NCI/ADR-RES, 72 h; Table 1; 3 days, SRB; read-out: IC50 NCI/ADR. The procedure:
(§1) Compounds of the invention may be screened for cytotoxicity using conventional assays well known to those skilled in the art. For example, cytotoxicity of the compounds may be determined by the SRB assay as disclosed in Skehan et al., J. Natl. Cancer Inst. 82:1107-1112 (1990), which is incorporated herein by reference. In the SRB assay, the following cultured cells are trypsinized, counted and diluted to the following concentrations per 100 μl with growth medium: MCF-7, 5000; NCI/ADR-Res, 7500; NCI-H460, 5000; A549, 5000; Skov3, 7500; and SF-268, 7500. The cells are seeded at 100 μl/well in 96-well microtiter plates. Twenty-four hours later, 100 μl of a test epothilone compound of the invention (ranging in concentration from 1000 nM to 0.001 nM diluted in growth medium) is added to each well. After incubation, with the compound for a period of days, the cells are fixed with 100 μl of 10% trichloroacetic acid (“TCA”) at 4 degrees for 1 hour, and stained with 0.2% sulforhodamine B (SRB)/1% acetic acid, and the bound SRB is then extracted with 200 μl of 10 mM Tris base. The amount of bound dye is determined by OD 515 nm, which correlates to the total cellular protein contents. The data is analyzed using standard statistical methodologies (such as those available with the software sold as KALEIDA GRAPH® by Synergy Software of Reading, Pa.) and the IC50s are calculated.
(§2) Human breast carcinoma cell line MCF-7, multi-drug resistant breast carcinoma cell line NCI/ADR, were obtained from the National Cancer Institute. Human non-small cell lung cancer cell line A549 and human ovarian cancer cell line SKOV-3 were obtained from American Type Culture Collection (Manassas, Va.). All cell lines were maintained in RPMI-1640 medium (Gibco/BRL, Rockville, Md.) supplemented with 2 mM L-glutamine, 25 mM HEPES and 10% FBS (Hyclone, Logan, Utah). Cells were maintained in a humidified incubator at 37° C. in 5% CO2.
(§3) Tumor cells were seeded in 100 μl at 5000 (MCF-7), 7500 (NCI/ADR), 5000 (A549) and 7500 (SKOV3) cells per well in 96-well plates. Cells were allowed to adhere for 24 hours. Each compound ranging from 0.001 to 1000 nM in 100 μl was added to cells in duplicate wells. After 3 days, cells were fixed at 4° C. for 1 hour with 10% trichloroacetic acid and then stained with 0.2% sulforhodamine B (SRB)/1% acetic acid for 20 minutes at room temperature. The unbound dye was rinsed away with 1% acetic acid, and the bounded SRB was then extracted with 200 μl of 10 mM Tris base. The absorbance was measured at 515 nm using a 96-well microtiter plate reader (Spectra Max 250, Molecular Devices). The IC50 values were calculated using a KaleidaGraph program. The experiments were performed twice.
For orientation: The SRB assay estimates cell density from bound dye.

Data set [2] in a line: Half-life in human plasma. Conditions: fresh human plasma. The method, then:
Half-lives of compounds in fresh mouse and human plasma were determined by dissolving the compounds in DMSO and adding aliquots to samples of mouse or human plasma. At Time Zero, aliquotted 75 μl from each sample and added 150 μl of acetonitrile. Centrifuged the white precipitate at 13500 rpm for 3 minutes. Transferred all the clear supernatant into another microcentrifuge tube and repeated the centrifuging step (13500 rpm/3 min). Carefully pipetted 150 μl of the clear supernatant into labeled HPLC sample tubes and tried to avoid pipetting any protein pellets. The samples were analyzed by HPLC to measure remaining compound at each time point by comparison with authentic standards.

Data set [3] relates to Human non-small cell lung cancer cell line A549. The experiment in a line: SRB cytotoxicity assay, A549. Type of data set: cell-based. Conditions: Homo sapiens, A549, 72 h; Table 1; 3 days, SRB; read-out: IC50 A549. The procedure: as §1, §2, §3
The nature of data set [4]: Half-life in mouse plasma. To be noted: fresh mouse plasma. The method, then: […] At Time Zero, aliquotted 75 μl from each sample and added 150 μl of acetonitrile. Centrifuged the white precipitate at 13500 rpm for 3 minutes. Transferred all the clear supernatant into another microcentrifuge tube and repeated the centrifuging step (13500 rpm/3 min). Carefully pipetted 150 μl of the clear supernatant into labeled HPLC sample tubes and tried to avoid pipetting any protein pellets. The samples were analyzed by HPLC to measure remaining compound at each time point by comparison with authentic standards.

The nature of data set [5]: Compound solubility in phosphate-buffered saline. Type of data set: physicochemical. Conditions: aqueous buffer, kinetic from dmso stock; 5 μL of 20 mg/mL DMSO stock in 95 μL phosphate-buffered saline, 0.45 micron filter, HPLC. The method, then: Compound solubility was determined as follows: 5 μL of stock solution (at 20 mg/mL in DMSO) was added to 95 μL of phosphate-buffered saline. After being vortexed for about 10 seconds, the solution/suspension was filtered through a 0.45 micron filter and the amount of analyte was quantitated by HPLC. Solubilities (mg/mL) determined were as follows: epothilone D, <0.06; trans-9,10-dehydroepothilone D, <0.06; 21-OH-26-F3-trans-9,10-dehydroepothilone D, 0.1; 21-amino-trans-9,10-dehydroepothilone D, >0.6; 21-amino-26-F3-trans-9,10-dehydroepothilone D, >0.6; 26-F3-trans-9,10-dehydroepothilone D, <0.06; 21-OH-trans-9,10-dehydroepothilone D, 0.1; KOSN 1635, <0.02; KOSN 1632, 0.12.

The subject of data set [6] is Human breast carcinoma cell line MCF-7. The experiment in a line: SRB cytotoxicity assay, MCF-7. Conditions: Homo sapiens, MCF7, 72 h; Table 1; 3 days, SRB; read-out: IC50 MCF-7. Type of data set: cell-based. The procedure: as §1, §2, §3
In data set [7] the test system is human ovarian cancer cell line SKOV-3. The data set is described as follows: SRB cytotoxicity assay, SKOV3. The class given is cell-based. To be noted: Homo sapiens, SK-OV-3, 72 h; Table 1; 3 days, SRB; read-out: IC50 SKOV3. The procedure: as §1, §2, §3
The next data set deals with T2, CYP2C9 (Homo sapiens, UniProt P11712).
T2 construct: purchased BD GenTest, Woburn, Mass
The experiment in a line: Cytochrome P450 inhibition, CYP2C9. Type of data set: in vitro ADME. To be noted: human.

The next data set addresses T3, CYP3A4 (Homo sapiens, UniProt P08684).
T3 construct: purchased BD GenTest, Woburn, Mass
The data set is described as follows: Cytochrome P450 inhibition (BD GenTest kit, BFC substrate), CYP3A4. Type of data set: in vitro ADME. The text has this:
Following the procedure of Examples 39 (when R=methyl) and 42 (when R=CF3), the additional compounds shown in Table 2 were made by replacing (2-(tert-butyldimethyl-silyloxy)-methylthiazol-4-yl)methyltri-n-butyl-phosphonium chloride with the corresponding phosphonium chloride. Cytotoxicity data (Table 2) was obtained as described in Example 48. Cytochrome P450 inhibition data (Table 3) was obtained using the initial rate method against BFC substrate.
Cytochrome P450 inhibition measurements were performed using a commercially-available kit (BD GenTest, Woburn, Mass.), using BFC as substrate against CYP3A4.

A short description of data set [8]: Plasma protein binding (ultrafiltration). The class given is in vitro ADME. Conditions: mouse or human plasma (species not given), 37° C. The method, then:
Plasma protein binding studies were performed as follows. Compounds were dissolved in DMSO, then diluted into either fresh or thawed samples of mouse or human plasma and incubated at 37° C. Time points of 50 μL were mixed with 100 μl of acetonitrile and centrifuged at ˜14000 rpm for 3 minutes. A 100 μL aliquot was removed from the supernatant and set aside for analysis to indicate compound in the total fraction. The remaining supernatant was transferred onto a Microcon ultrafiltration device fitted with a YM10 membrane and centrifuged to separate protein-bound material. A 50 μL aliquot of the protein-free filtrate was mixed with 100 μL of acetonitrile, centrifuged at ˜14000 rpm for 3 minutes, then 100 μL of the supernatant was collected and analyzed to determine the amount of compound not protein bound. The amount of compound in the total sample and in the protein-free fraction were determined by HPLC analysis against authentic standards.

T3 sequence (P08684 whole entry): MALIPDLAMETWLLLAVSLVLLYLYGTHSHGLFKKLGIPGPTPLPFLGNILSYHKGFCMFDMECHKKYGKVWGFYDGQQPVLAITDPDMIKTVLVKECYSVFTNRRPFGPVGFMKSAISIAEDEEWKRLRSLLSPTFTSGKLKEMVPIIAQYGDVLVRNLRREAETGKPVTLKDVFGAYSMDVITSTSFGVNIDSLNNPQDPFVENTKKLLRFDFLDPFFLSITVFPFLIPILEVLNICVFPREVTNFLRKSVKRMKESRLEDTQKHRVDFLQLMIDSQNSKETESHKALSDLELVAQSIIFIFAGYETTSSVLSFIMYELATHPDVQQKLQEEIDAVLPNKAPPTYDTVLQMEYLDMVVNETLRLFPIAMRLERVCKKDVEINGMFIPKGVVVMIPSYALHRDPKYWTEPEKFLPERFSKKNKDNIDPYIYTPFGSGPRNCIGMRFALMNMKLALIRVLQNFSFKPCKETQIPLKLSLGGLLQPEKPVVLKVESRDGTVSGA
T2 sequence (P11712 whole entry): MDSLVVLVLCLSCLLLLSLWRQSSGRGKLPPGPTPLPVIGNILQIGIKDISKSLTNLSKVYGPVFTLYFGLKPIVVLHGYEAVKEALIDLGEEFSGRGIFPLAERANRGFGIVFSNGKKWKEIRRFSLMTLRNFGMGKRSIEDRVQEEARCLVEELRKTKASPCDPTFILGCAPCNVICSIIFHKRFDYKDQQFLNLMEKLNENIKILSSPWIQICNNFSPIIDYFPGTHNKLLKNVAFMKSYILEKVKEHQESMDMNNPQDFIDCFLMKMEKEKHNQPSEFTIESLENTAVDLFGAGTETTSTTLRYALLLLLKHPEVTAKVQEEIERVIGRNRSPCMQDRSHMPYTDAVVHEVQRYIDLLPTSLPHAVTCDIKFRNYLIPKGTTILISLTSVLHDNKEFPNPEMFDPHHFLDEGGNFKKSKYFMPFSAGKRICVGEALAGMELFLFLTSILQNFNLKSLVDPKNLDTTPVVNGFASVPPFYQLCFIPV
T1 sequence (P33261 whole entry): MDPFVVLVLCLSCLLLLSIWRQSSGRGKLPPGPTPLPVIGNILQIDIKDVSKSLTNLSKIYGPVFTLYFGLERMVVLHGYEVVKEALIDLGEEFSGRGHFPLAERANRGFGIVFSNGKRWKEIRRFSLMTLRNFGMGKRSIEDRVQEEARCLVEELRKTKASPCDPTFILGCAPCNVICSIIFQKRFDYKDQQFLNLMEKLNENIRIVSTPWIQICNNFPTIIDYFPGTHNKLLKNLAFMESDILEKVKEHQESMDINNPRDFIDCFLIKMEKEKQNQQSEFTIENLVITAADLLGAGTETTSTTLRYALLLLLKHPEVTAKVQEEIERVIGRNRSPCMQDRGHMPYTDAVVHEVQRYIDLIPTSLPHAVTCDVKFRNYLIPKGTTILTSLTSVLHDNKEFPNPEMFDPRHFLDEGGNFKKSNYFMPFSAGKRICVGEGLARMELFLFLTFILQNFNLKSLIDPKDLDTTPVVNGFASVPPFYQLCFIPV

For `C/C(=C\c1csc(C)n1)[C@@H]1C/C=C(/C(F)(F)F)C/C=C/[C@H](C)[C@H](O)[C@@H](C)C(=O)C(C)(C)[C@@H](O)CC(=O)O1` (relative stereo) [26-trifluoro 9,10-dehydroepothilone D, 26-trifluoro-trans-9,10-dehydroepothilone D, reference compound], the IC50 at CYP2C19 is 3.2 µM; in data set [1], 0.033 µM; in [3], 0.011 µM; in [6], 0.0053 µM; in data set [7], 0.022 µM; against CYP2C9, 14.4 µM. On CYP3A4, this compound showed an IC50 of 2 µM. The half-life in data set [2] is greater than 24 h; in [4], 2.72 h. For the same compound, the solubility in data set [5] was less than 60 µg/mL. Further, the “percentage of compound protein bound” value in data set [8] is given as 96.5%.

As for `C/C1=C/C[C@@H](/C(C)=C/c2csc(CN)n2)OC(=O)C[C@H](O)C(C)(C)C(=O)[C@H](C)[C@@H](O)[C@@H](C)/C=C/C1` [21-NH2 9,10-dehydroepothilone D, 21-amino-9,10-dehydro-epothilone D], the IC50 at CYP2C19 was found to be 0.63 µM; in data set [1], 0.025 µM; in [3] it was 0.0059 µM; in data set [6], 0.0032 µM; in data set [7], 0.0057 µM; on CYP2C9, 0.83 µM. Moreover, the IC50 at CYP3A4 stood at 0.61 µM. For the same compound, the half-life in data set [2] is greater than 24 h; in data set [4] it was 0.983 h. Besides, the solubility in [5] is greater than 600 µg/mL. Further, the “percentage of compound protein bound” value in data set [8] amounted to 89.5%.

As for `C/C1=C/C[C@@H](/C(C)=C/c2csc(CO)n2)OC(=O)C[C@H](O)C(C)(C)C(=O)[C@H](C)[C@@H](O)[C@@H](C)/C=C/C1` [21-OH 9,10-dehydroepothilone D, 21-hydroxy-9,10-dehydro-epothilone D], the IC50 worked out at 5.6 µM against CYP2C19; 0.014 µM in [1]; 0.0038 µM in data set [3]; 0.0023 µM in data set [6]; 0.0057 µM in data set [7]; 22 µM against CYP2C9. At CYP3A4, this compound showed an IC50 of 0.8 µM. For the same compound, the half-life in data set [2] is greater than 24 h; in data set [4], 17.6 h. The compound further gave a solubility in data set [5] of 100 µg/mL (≈ 198 µM). Moreover, in data set [8], the “percentage of compound protein bound” value was found to be 94.2%.

As for `C/C(=C\c1csc(CO)n1)[C@@H]1C/C=C(/C(F)(F)F)C/C=C/[C@H](C)[C@H](O)[C@@H](C)C(=O)C(C)(C)[C@@H](O)CC(=O)O1` [21-hydroxy-9,10-dehydro-26-trifluoroepothilone D], the IC50 against CYP2C19 came to 20.5 µM; in [1] it was 0.065 µM; in [3] it was 0.0061 µM; in [6] it was 0.0036 µM; in data set [7], 0.0079 µM; on CYP2C9, 17.3 µM. At CYP3A4, this compound returned an IC50 of 1 µM. Also, the half-life is greater than 24 h in data set [2] and 6.32 h in data set [4]. For the same compound, the solubility in data set [5] came out at 100 µg/mL (≈ 179 µM). For the same compound, the “percentage of compound protein bound” value in [8] was determined as 92.8%.

As to `C/C1=C/C[C@@H](/C(C)=C/c2csc(C)n2)OC(=O)C[C@H](O)C(C)(C)C(=O)[C@H](C)[C@@H](O)[C@@H](C)CCC1` [Epothilone D, Desoxyepothilone B, reference compound], the IC50 was 1.6 to 3.4 µM on CYP2C19; 0.023 µM in [1]; 0.025 µM in data set [3]; 0.0068 µM in data set [6]; 0.039 µM in data set [7]; 9 to 12 µM at CYP2C9. In addition, the IC50 on CYP3A4 came out at 2.4 µM. For the same compound, the half-life in data set [2] is greater than 24 h; in data set [4], 0.817 h. Moreover, in data set [5], the solubility is less than 60 µg/mL. The “percentage of compound protein bound” value in [8] was 98.5%.

Turning to `C/C1=C/C[C@@H](/C(C)=C/c2ccccn2)OC(=O)C[C@H](O)C(C)(C)C(=O)[C@H](C)[C@@H](O)[C@@H](C)/C=C/C1` [KOSN 1632, 17-des(2-methyl-4-thiazolyl)-17-(2-pyridyl)-9,10-dehydropeothilone D], the IC50 against CYP2C19 worked out at 3.05 µM; in data set [1], 0.0046 µM; in data set [3], 0.0033 µM; in data set [6], 0.00087 µM; in data set [7] it was 0.0044 µM; against CYP2C9, 15 µM. Moreover, the IC50 on CYP3A4 came to 2.52 µM. The half-life was greater than 24 h in data set [2] and 0.467 h in [4]. In addition, the solubility in data set [5] turned out to be 120 µg/mL (≈ 256 µM). In addition, the “percentage of compound protein bound” value in [8] was determined as 89.4%.

Take `C/C1=C/C[C@@H](/C(C)=C/c2nc3ccccc3s2)OC(=O)C[C@H](O)C(C)(C)C(=O)[C@H](C)[C@@H](O)[C@@H](C)/C=C/C1` [KOSN 1635, 17-des(2-methyl-4-thiazolyl)-17-(2-benzothiazolyl)-9,10-dehydropeothilone D]: the IC50 came to 3.27 µM against CYP2C19; 0.0056 µM in data set [1]; 0.0042 µM in data set [3]; 0.0011 µM in data set [6]; 0.0034 µM in data set [7]; 4.1 µM on CYP2C9. At CYP3A4, this compound displayed an IC50 of 3.12 µM. In addition, the half-life in data set [2] is greater than 24 h; in data set [4], 0.967 h. Further, the solubility in data set [5] is less than 20 µg/mL. For the same compound, in [8], the “percentage of compound protein bound” value worked out at 99.7%.
